Results as given in patent publication US20030166606A1, “5'-deoxy-n-(substituted oxycarbonyl)-5-fluorocytosine and derivatives thereof, method of preparing same, and anticancer composition comprising same as active ingredients” (priority 2003, published 2003).
In brackets after ≈: the same amount, converted by molar mass. Where two headings read alike, the source gives them in different places.

Legend:
[1] = system: mouse tumor cell line L1210; test: Anticancer activity on L1210 in BDF1 mice, increased life span (Example 34, Table 4); type: in vivo; details: for Average life maintenance day: control 8.8
Procedure: Capecitabine (5′-deoxy-N^4-(pentyloxycarbonyl)-5-fluorocytosine (in Formula 1, R^a=pentyl, R^b=hydrogen) which has good anticancer activity among. 5′-deoxy-N-alkyloxycarbonyl-5-fluorocytosine derivatives disclosed in European Patent No. 602454 was used for a control, 5′-deoxy-N^4-propazyloxycarbonyl-5-fluorocytosine-5′-carboxylic acid (Formula 2a) obtained from Example 3 was used for a sample, and anticancer activity to the mouse tumor cell line L1210 was measured.
The mice used were 5-week-old BDF1 male mice (19 to 20 g) that were purchased from Charles River Japan, and adapted for 1 week. The breeding condition of the mouse was set to a temperature of 24±2° C. and a humidity of […] Purified water for drinking was supplied to the mice twice a week, and straws and cages were changed once a week. The experiment was performed using two mice per group. As the tumor cell line, an L1210 mouse blood tumor cell line was used, the cell line was sub-cultured in a Falcon culture flask twice or three times, washed with a phosphorous buffer solution (pH 7.2), quantified under a microscope to produce a cell suspension of 1×10^7/ml, and 100 (1×10^6) […] of the cell suspension was abdominally administered to the mouse using 1 ml of a disposable sterilized injector. The drug was orally administered 24 hours after the cellular transplantation. The concentration of the administered capecitabine was 1.2, 5.7, 28.8, 144, and 720 mg/kg/100 μl for respective mice, and that of the compound of 2a of the present invention was 1.2, 5.8, 28.8 mg/kg/100 μl for respective mice. The capecitabine was dissolved in dimethylsulfoxide and suspended in 0.5% carboxymethyl cellulose, and the compound of 2a was dissolved in distilled water. The samples were administered to the mice five times a week for 3 weeks, for a total of 15 times, starting 24 hours after the tumor cell administration. The anticancer activity was determined as increased life span to control.

SK-OV-3 (ovarian cancer) = test: MTT cell toxicity to human cancer cells, SK-OV-3; type: cell-based; details: for IC50 Cancer cell line SK-OV-3: 72 hours, Table 3; for IC50: Homo sapiens, SK-OV-3, 72 hours
Procedure: (§1) For measuring in vitro anticancer activity of 5′-deoxy-N^4-propargyloxycarbonyl-5-fluorocytosine-5′-carboxylic acid (R^3=propargyl, compound of 2a) using 5-Fu as a reference compound, cell toxicity to human cancer cell was evaluated. The cancer cells used were A549 (lung cancer), HCT15 (colon cancer), SK-OV-3 (ovarian cancer), and SK-MEL-2 (melanoma cancer).
(§2) The cancer cells were incubated in an incubator with a constant humidity at 37° C. and 5% CO2, and an RPMI medium with the addition of 10% fetal bovine serum was used for a basic medium. In order to identify cell toxicity, the cancer cells in a logarithmic phase were inoculated at 2-5×10^4 cells per well of a 96-well plate, and incubated for 24 hours. A sample solution of 5-FU and 5′-deoxy-N^4-propargyloxycarbonyl-5-flurocytosine-5′-carboxylic acid was stepwisely added to the well and incubated for 72 hours. 20 μl of 5 mg/ml MTT reacting solution dissolved in a physiological saline solution was added to the well of the incubated plate and incubated for 4 hours. The produced formazan crystal was dissolved in dimethylsulfoxide and absorbance of each well was measured at 540 nm to calculate a number of living cells. The absorbance of the well with the medium and without cell was set to 0%, that of the well without the sample was set to 100%, and the concentration corresponding to 50% was called an IC50 (μg/ml) value.
(§3) In order to measure anticancer activity of 5′-deoxy-N-alkyloxycarbonyl-5-fluorocytosine-5′-carboxylic acid (compound of Formula 2a) of the present invention using 5-FU as a control, the cell toxicity to human cancer cells was measured. The human cancer cells used were A549 (lung cancer), HCT15 (colon cancer), SK-OV-3 (ovarian cancer), and SK-MEL-2 (melanoma cancer).
(§4) The cancer cells were cultured in an incubator with a constant humidity at 37° C. and 5% CO2, and an RPMI medium with 10% fetal bovine serum was used for a medium. In order to measure cell toxicity, the cancer cells in a logarithmic phase were inoculated into 2 to 5×10^4 cells per well of a 96-well plate, incubated for 24 hours, and a sample solution of a stepwise dilution of 5-FU and 5′-deoxy-N^4-pentyloxycarbonyl-5-fluorocytocine-5′-carboxylic acid were added thereto followed by incubating for 72 hours. 20 μl of 5 mg/ml of MTT reacting solution dissolved in a physiological saline solution was added to each well of the incubated plate, incubated for 4 hours, the produced formazan crystal was dissolved in dimethylsulfoxide, and the absorbance of each well was measured at a wavelength of 540 nm to calculate the number of living cells.

HCT15 (colon cancer) = test: MTT cell toxicity to human cancer cells, HCT15; type: cell-based; details: for IC50 Cancer cell line HCT15: 72 hours, Table 3; for IC50: Homo sapiens, HCT-15, 72 hours
Procedure: as §1, §2, §3, §4

[2] = system: SK-MEL-2 (melanoma cancer); test: MTT cell toxicity to human cancer cells, SK-MEL-2; type: cell-based; details: for IC50 Cancer cell line SK-MEL2: 72 hours, Table 3
Procedure: as §1, §2, §3, §4

A549 (lung cancer) = test: MTT cell toxicity to human cancer cells, A549; type: cell-based; details: for IC50 Cancer cell line A549: 72 hours, Table 3
Procedure: as §1, §2, §3, §4

[3] = system: mouse tumor cell line L1210; test: Anticancer activity on L1210 in BDF1 mice, increased life span (Example 6, Table 2); type: in vivo; details: for Increased life span (%) / Average survival date: 15 times; for Average survival date: control 17.8
Procedure: The mice used were 5-week-old BDF1 male mice (19 to 20 g) that were purchased from Charles River Japan, and adapted for 1 week. The breeding condition of the mice was set to a temperature of 24±2° C. and a humidity of 50±1° C. Purified water for drinking was supplied to the mice twice a week, and straws and cages were changed once a week. The experiment was performed using two mice per group. As the tumor cell line, an L1210 mouse blood tumor cell line was used, and the cell line was sub-cultured in a Falcon culture flask twice or three times, washed with a phosphorous buffer solution (pH 7.2), and quantified under a microscope to produce a cell suspension of 1×10^7/ml, and 100 (1×10^6) ml of the cell suspension was abdominally administered to the mouse using 1 ml of a disposable sterilized injector. The drug was orally administered 24 hours after the cellular transplantation. […] The samples were administered to the mice five times a week for 3 weeks, for a total of 15 times, starting 24 hours after the tumor cell administration. The anticancer activity was determined as increased life span to control.

[4] = system: mouse tumor cell line L1210; test: Anticancer activity on L1210 in BDF1 mice, increased life span (Example 35, Table 5); type: in vivo; details: 15 times; for Average life day: control 17.8
Procedure: The mice used were 5-week-old BDF1 male mice (19 to 20 g) that were purchased from Charles River Japan, and adapted for 1 week. The breeding condition of the mice was set to a temperature of 24±2° C. and a humidity of […] Purified water for drinking water was supplied to the mice twice a week, and straws and cages were changed once a week. The experiment was performed using two mice per group. […] The drug was orally administered 24 hours after the cellular transplantation. […] The capecitabine was dissolved in dimethylsulfoxide and suspended in 0.5% carboxymethyl cellulose, and the compound of 2a was dissolved in distilled water. […] The anticancer activity was determined as increased life span.

SMILES	Increased life span (%) ([1]; 0.13 mmol/kg/day oral)	Average life maintenance day ([1]; 0.13 mmol/kg/day oral) [days]	Increased life span (%) ([1]; 0.67 mmol/kg/day oral)	Average life maintenance day ([1]; 0.67 mmol/kg/day oral) [days]	Increased life span (%) ([1]; 1.5 mmol/kg/day oral)	Average life maintenance day ([1]; 1.5 mmol/kg/day oral) [days]	IC50 Cancer cell line SK-OV-3 (SK-OV-3 (ovarian cancer)) [µg/mL]	IC50 Cancer cell line HCT15 (HCT15 (colon cancer)) [µg/mL]	IC50 Cancer cell line SK-MEL2 [2] [µg/mL]	IC50 Cancer cell line A549 (A549 (lung cancer)) [µg/mL]	Increased life span (%) ([3]; 5.8 mg/kg/day oral)	Average survival date ([3]; 5.8 mg/kg/day oral) [days]	Increased life span (%) ([3]; 28.8 mg/kg/day oral)	Average survival date ([3]; 28.8 mg/kg/day oral) [days]	Life maintenance rate (%) ([4]; 1.2 mg/kg/day oral)	Average life day ([4]; 1.2 mg/kg/day oral) [days]	Life maintenance rate (%) ([4]; 5.8 mg/kg/day oral)	Average life day ([4]; 5.8 mg/kg/day oral) [days]	Life maintenance rate (%) ([4]; 28.8 mg/kg/day oral)	Average life day ([4]; 28.8 mg/kg/day oral) [days]	other results
CCCCCOC(=O)Nc1nc(=O)n([C@@H]2O[C@H](C(=O)O)[C@@H](O)[C@H]2O)cc1F [Example 28, 5′-deoxy-N^4-(pentyloxycarbonyl)-5-fluorocytosine-5′-carboxylic acid]	3.4	9.1	28.4	11.3	91.9	16.8	0.03 (≈ 0.0771 µM)	0.12 (≈ 0.308 µM)	0.03 (≈ 0.0771 µM)	0.17 (≈ 0.437 µM)											
CCCCCOC(=O)Nc1nc(=O)n([C@@H]2O[C@H](C)[C@@H](O)[C@H]2O)cc1F [Capecitabine, 5′-deoxy-N^4-(pentyloxycarbonyl)-5-fluorocytosine]	6.8	9.4	9.1	9.6	42.0	12.5					8	19.2	14	20.2	6	18.9	8	19.2	14	20.2	Increased life span (%) ([3]; 144 mg/kg/day oral): 15%; Average survival date ([3]; 144 mg/kg/day oral): 20.1 days; Increased life span (%) ([3]; 720 mg/kg/day oral): 30%; Average survival date ([3]; 720 mg/kg/day oral): 22.8 days; Life maintenance rate (%) ([4]; 144 mg/kg/day oral): 15%; Average life day ([4]; 144 mg/kg/day oral): 20.1 days; Life maintenance rate (%) ([4]; 720 mg/kg/day oral): 30%; Average life day ([4]; 720 mg/kg/day oral): 22.8 days
CCOC(=O)Nc1nc(=O)n([C@@H]2O[C@H](C(=O)O)[C@@H](O)[C@H]2O)cc1F [Example 25, 5′-deoxy-N^4-(ethyloxycarbonyl)-5-fluorocytosine-5′-carboxylic acid]							0.16 (≈ 0.461 µM)	0.47 (≈ 1.35 µM)	0.16 (≈ 0.461 µM)	0.49 (≈ 1.41 µM)											
C=CCOC(=O)Nc1nc(=O)n([C@@H]2O[C@H](C(=O)O)[C@@H](O)[C@H]2O)cc1F [Example 30, 5′-deoxy-N^4-(allyloxycarbonyl)-5-fluorocytosine-5′-carboxylic acid]							0.008 (≈ 0.0223 µM)	0.032 (≈ 0.0891 µM)	0.008 (≈ 0.0223 µM)	0.04 (≈ 0.111 µM)					25	22.1	39	24.8	44	25.7	
C#CCOC(=O)Nc1nc(=O)n([C@@H]2O[C@H](C(=O)O)[C@@H](O)[C@H]2O)cc1F [Example 3, 5′-deoxy-N^4-(propargyloxycarbonyl)-5-fluorocytosine-5′-carboxylic acid]							0.005 (≈ 0.014 µM)	0.040 (≈ 0.112 µM)	0.007 (≈ 0.0196 µM)	0.005 (≈ 0.014 µM)	11	20.6	23	21.9	8	20.1	11	20.6	23	21.9	Increased life span (%) ([3]; 1.2 mg/kg/day oral): 8%; Average survival date ([3]; 1.2 mg/kg/day oral): 20.1 days; anticancer activity in vivo ([3]; summary of Table 2, animal experiment): good anticancer activity in vivo
O=c1[nH]cc(F)c(=O)[nH]1 [Example 5-FU, 5-fluorouracil, reference compound]																					Increased life span (%) ([1]; 0.15 mmol/kg/day): 62.5%; Average life maintenance day ([1]; 0.15 mmol/kg/day): 14.3 days; Increased life span (%) ([1]; 0.23 mmol/kg/day): 87.5%; Average life maintenance day ([1]; 0.23 mmol/kg/day): 16.5 days; IC50 (SK-OV-3 (ovarian cancer); Table 1, read-out: IC50 Concentration (μg/ml) SK-OV-3): 0.03 µg/mL (≈ 0.231 µM); IC50 (SK-OV-3 (ovarian cancer); Table 3, read-out: IC50 Cancer cell line SK-OV-3): 0.03 µg/mL (≈ 0.231 µM); IC50 (HCT15 (colon cancer); Table 1, read-out: IC50 Concentration (μg/ml) HCT15): 0.11 µg/mL (≈ 0.846 µM); IC50 (HCT15 (colon cancer); Table 3, read-out: IC50 Cancer cell line HCT15): 0.11 µg/mL (≈ 0.846 µM); IC50 ([2]; Homo sapiens, SK-MEL-2, 72 hours, Table 3, read-out: IC50 Cancer cell line SK-MEL2): 0.63 µg/mL (≈ 4.84 µM); IC50 (A549 (lung cancer); Homo sapiens, A549, 72 hours, Table 3, read-out: IC50 Cancer cell line A549): 0.26 µg/mL (≈ 2 µM)
